Data reported in patent publication US20190029987A1, “DIMETHYL FUMARATE (DMF) FOR PREVENTION OR TREATMENT OF GOUT, ACNE, DIABETES, VITILIGO AND/OR PYODERMA GANGRENOSUM” (UNIVERSITAT ZURICH, priority 2016, published 2019).
Counter-ions that a name gives are not always drawn.

Assays:
Nrf2 [1] = assay: UVB-induced Nrf2 degradation in HPKs (Western blot); assay type: cell-based, human; details: harvested after 1 h, FIG. 7D
From the text: Next, the inventors investigated the activity of Nrf2 upon activation of the NLRP3 inflammasome, since inflammasome activation is ROS-dependent. […] This is surprising, since UVB irradiation is a strong inducer of ROS production and it can be anticipated that the cells would benefit from Nrf2 activation. UVB-induced secretion by HPKs requires expression of NLRP1 and NLRP3 [21]. Both nigericin and MSU crystals are considered as “true” NLRP3 activators, but HPKs cannot phagocytose MSU crystals. Therefore, the inventors treated HPKs with nigericin only and THP-1 cells with either of these NLRP3 activators. […] Therefore, NLRP3 inflammasome activation most likely induces Nrf2 protein degradation. […] However, inflammasome activation-induced Nrf2 degradation was blocked upon ablation of ASC or NLRP3 expression (FIG. 4G) and upon treatment of cells with the ROS blocker PDTC or the Ca2+ chelator BAPTA-AM (Supplementary FIG. 2D). […] However, inflammasome function was not impaired, as reflected by normal processing of pro-IL-18 (FIG. 4H). Although Keap1 expression is partially dispensable for Nrf2 degradation by inflammasome activation, the transcription factor is directed to the proteasome under these conditions, since Nrf2 degradation was inhibited by the proteasome inhibitor MG132 (FIG. 4I and FIG. 7D).
(§1) FIG. 7: (A-C) HPKs were transfected with siRNAs for 3 d as indicated. Scrambled (scr) siRNA and siRNA targeting the unrelated vascular endothelial growth factor (VEGF) served as controls. Western blots of (A) total lysates or (B) nuclear and cytoplasmic lysates and (C) qRT-PCR for expression of target gene expression. (D) HPKs were treated with MG132 (1 μM), PDTC (500 μM) or BAPTA-AM (12.5 μM) for 10 min and harvested (before UV) or irradiated with UVB and harvested after 1 h. Western blots showing expression of Nrf2. (E) Differentiated and primed THP-1 cells were pretreated with cycloheximide (CHX, 30 μg/ml) for 1 h before priming cells with upLPS overnight. Western blots show expression of the indicated proteins. […] Statistics: (C) Mann-Whitney test, related to scr control. *P≤0.05

[2] = system: Nrf2 target genes Gstp1, Nqo1 and Srxn1; assay: Nrf2 target gene expression in liver of treated mice (qRT-PCR); assay type: in vivo, mouse; details: oral gavage 20 mg/kg, FIG. 3F
Method: (§7) Monosodium urate (MSU) crystal-induced peritonitis is a mouse model of inflammation and gout, which is dependent on IL-1, IL-1R1, MyD88 and the NLRP3 inflammasome. […] The inventors chose a different way of administration and supplied mice with SFN or DMF by oral gavage to determine a potential anti-inflammatory activity of the Nrf2 activators in vivo (FIG. 3). […] The inventors analysed the cellular infiltrate in the peritoneum 6 h post injection of MSU crystals.
qRT-PCR was performed with the LightCycler 480 SYBR Green Master or the FastStart Universal SYBR Green Master (both Roche, Rotkreuz, Switzerland) using total cellular RNA. Specific primer pairs (Supplementary Table 2) were designed to generate an approximately 150 bp fragment flanking an intron-exon border of the corresponding gene. […]
Mice treated by gavage with (A, B, C) SFN (25 mg/kg) in PBS or (D, E, F) DMF (20 mg/kg) in H2O containing 0.08% methocel and 10% DMSO, vehicle-treated mice served as control. […] Peritonitis was induced by peritoneal injection of 2 mg MSU crystals, (B, E) After 6 h the number of neutrophils of the peritoneal lavage was determined by flow cytornetry. (C, F) At the same time, the liver was isolated and analysed for the expression of the Nrf2 target genes Gstp1, Nqo1 and Srxn1 by qRT-PCR. […]

NLRP3 inflammasome [3] = target: T1, NLRP3 inflammasome (Homo sapiens, UniProt Q96P20); assay: Inflammasome activation by nigericin/MSU in differentiated, primed THP-1 cells (IL-1β ELISA, Western blot); assay type: cell-based; details: THP-1, 50 μM 1 h before 5 μM nigericin or 150 μg/ml MSU, 5 h, FIG. 2B
T1 construct: endogenous in cells
T1 sequence (Q96P20 whole entry): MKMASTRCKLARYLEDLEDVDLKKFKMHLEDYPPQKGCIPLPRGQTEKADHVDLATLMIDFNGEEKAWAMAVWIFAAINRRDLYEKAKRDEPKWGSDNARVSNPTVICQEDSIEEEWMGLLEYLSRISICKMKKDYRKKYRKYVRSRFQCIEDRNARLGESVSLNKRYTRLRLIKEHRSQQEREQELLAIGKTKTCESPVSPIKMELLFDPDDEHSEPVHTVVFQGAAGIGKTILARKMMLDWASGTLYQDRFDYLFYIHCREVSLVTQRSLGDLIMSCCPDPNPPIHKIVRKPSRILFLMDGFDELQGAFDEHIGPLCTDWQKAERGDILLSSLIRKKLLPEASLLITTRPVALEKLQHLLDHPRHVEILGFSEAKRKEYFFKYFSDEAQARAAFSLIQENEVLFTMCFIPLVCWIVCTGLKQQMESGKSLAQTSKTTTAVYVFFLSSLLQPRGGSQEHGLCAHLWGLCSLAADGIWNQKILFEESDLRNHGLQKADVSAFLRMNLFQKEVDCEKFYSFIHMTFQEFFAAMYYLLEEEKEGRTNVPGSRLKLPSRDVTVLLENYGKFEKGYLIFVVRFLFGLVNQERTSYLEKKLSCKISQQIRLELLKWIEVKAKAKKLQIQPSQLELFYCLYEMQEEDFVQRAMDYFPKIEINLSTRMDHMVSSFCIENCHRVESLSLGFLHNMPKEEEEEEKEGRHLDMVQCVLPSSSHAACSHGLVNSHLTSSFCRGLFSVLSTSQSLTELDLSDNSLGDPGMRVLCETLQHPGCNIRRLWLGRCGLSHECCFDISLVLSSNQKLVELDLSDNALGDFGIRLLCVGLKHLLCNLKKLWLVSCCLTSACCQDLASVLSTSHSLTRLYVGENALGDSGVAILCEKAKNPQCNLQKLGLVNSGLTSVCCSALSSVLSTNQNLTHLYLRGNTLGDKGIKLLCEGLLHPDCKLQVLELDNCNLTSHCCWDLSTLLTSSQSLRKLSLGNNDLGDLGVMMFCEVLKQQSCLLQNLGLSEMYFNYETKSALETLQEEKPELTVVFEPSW
From the text: (§2) To determine the effects of Nrf2 activating compounds on inflammasome activation, the inventors treated keratinocytes with different doses of SFN, tBHQ, DMF or 15d-PGJ2 and irradiated the cells with UVB.
(§3) SFN, DMF, 15d-PGJ2, tBHQ, zymosan, ATP, poly(dA:dT), cycloheximide, puromycin, and doxycycline were purchased from Sigma (Munich, Germany), nigericin from Enzo Life Sciences (New York, US-NY), MG132 from Calbiochem (Darmstadt, Germany), and blasticidin from Invivogen (Toulouse, France). Release of IL-1p was determined by ELISA according the instructions of the manufacturer (R&D Systems, Minneapolis, US-MN). MSU crystals were prepared by crystallisation of a supersaturated solution of uric acid under mildly basic conditions. Briefly, uric acid was added to a solution of NaOH, the solution was boiled until the uric acid was dissolved and passed through a filter. NaCl was added and crystallisation was performed at 4° C. Crystals were filtered, then dried using a speedvac, weighted and autoclaved.
(§4) (A) HPKs were treated with the indicated concentrations of the Nrf2 activating compound tBHQ irradiated with UVB 30 min later and harvested after 5 h. ELISA measurements were performed for quantification of IL-1β secretion and Western blots for analysis of expression and activation of the indicated proteins. Specific bands are marked with an asterisk. (B) THP-1 cells were differentiated with PMA (27 nM) for 3 d, primed with upLPS (100 ng/ml) overnight, and 1 h before inflammasome activation (5 μM nigericin, 150 μg/ml MSU) treated with SFN (10 μM), 15-PGJ2 (10 μM) or DMF (50 μM) (15-PG: 15-PGJ2). Cells and supernatants were harvested after 5 h and analysed for inflammasome activation by ELISA measurement of IL-1p and Western blots as indicated. (C) Freshly isolated PBMCs from human blood were primed overnight with upLPS (100 ng/ml) and treated with SFN (10 μM), tBHQ (10 μM), DMF (50 μM) or 15-PGJ2 (10 μM) 1 h before inflammasome activation by nigericin (5 μM). ELISA measurement for secretion of IL-1β as readout for inflammasome activation was performed after 5 h. (D) HPKs or (E) differentiated and primed THP-1 cells were pretreated with cycloheximide (CHX, 30 μg/ml) to block protein synthesis for 1 h before SFN (10 μM) was added to the cells and after an additional hour the inflammasome was activated by (D) irradiation with UVB or (E) treatment with nigericin (5 μM). Cells and supernatants were harvested after (D) 6 h or (E) 3.5 h and analysed for inflammasome activation by Western blot as indicated. (A-E) Representative experiments performed at least three times are shown. Statistics: (A-C) Error bars represent the mean±SD of a representative experiment performed in triplicates. One-way ANOVA was performed. **P≤0.01; ***P≤0.001.
(A-C) HPKs were irradiated with (A) UVB or treated with (B) nigericin (5 μM) and cells and supernatants were harvested at different time points as indicated. Western blots for expression and activation of the indicated proteins. Specific bands are marked with an asterisk. (C) Expression of Nrf2 and Nrf2 target genes was determined by qRT-PCR. (D, E) THP-1 cells were differentiated with PMA (27 nM) for 3 d, primed with upLPS (100 ng/ml) overnight and treated with nigericin (5 μM) or MSU (150 μg/ml). Cells and supernatants were harvested at different time points as indicated and analysed for (D) expression and activation of the proteins as indicated by Western blot and (E) expression of Nrf2 and Nrf2 target genes by qRT-PCR. (F) HPKs were transfected with specific siRNAs as indicated (scr: scrambled, c1: caspase-1, K1; Keap1), 2 d later irradiated with UVB or treated with nigericin (5 μM). Cells were harvested after 1 h or 5 h, and lysates were analysed for the expression of the indicated proteins by Western blot.

NLRP3 inflammasome [4] = target: T1, NLRP3 inflammasome; assay: Nigericin-induced IL-1β secretion in human PBMCs (ELISA); assay type: cell-based; details: 5 h, FIG. 2C
From the text: as §2, §3, §4

[5] = system: Nrf2 target genes (GCLC, GCLM, NAD(P)H dehydrogenase, quinone 1); assay: Nrf2 target gene expression in HPKs (qRT-PCR); assay type: cell-based, human; details: RNA after 8 h, FIG. 6G
Method: (§5) Human primary keratinocytes (HPKs) constitutively express pro-IL-1β and inflammasome proteins.
qRT-PCR was performed with the LightCycler 480 SYBR Green Master or the FastStart Universal SYBR Green Master (both Roche, Rotkreuz, Switzerland) using total cellular RNA. Specific primer pairs (Supplementary Table 2) were designed to generate an approximately 150 bp fragment flanking an intron-exon border of the corresponding gene. The LightCycler 480 96-well version (ROCHE, Rotkreuz, Switzerland) or the ViiA 7 Real-Time FOR System (Life Technologies, Carlsbad, US-CA) was used for reaction and detection according the instructions of the manufacturer.
(§6) FIG. 6: Bone marrow (BM) cells were isolated from Nrf2-deficient mice and wt litterfnates and differentiated into dendritic cells (DCs). (A, B) After priming with upLPS overnight, BMDCs were treated with the NLRP3 inflammasome activators nigericin (20 μM), zymosan (20 μg/ml), MSU (150 μg/ml), ATP (5 mM) or transfected with poly(dA:dT) (1 μg/ml) for activation of the AIM2 inflammasome. After 6 h, supernatants were analysed for secretion of IL-1β by (A) ELISA or (B) Western blot. Mock-treated but primed BMDCs were analysed for expression of inflammasome proteins and pro-IL-1β at the (C) mRNA level by qRT-PCR or at the (D) protein level by Western blot. (B, D) Duplicates from two individual mice per genotype are shown (biological replicates). (E-G) HPKs were treated with the Nrf2 activators SFN (10 μM), tBHQ (10 μM), DMF (50 μM) and 15d-PGJ2 (10 μM). After 1 h, the cells were harvested and analysed for expression of the indicated proteins using total cell lysates (E) or cytoplasmic and nuclear lysates (F). Western blots for the nuclear protein lamin NC and the cytoplasmic protein α-tubulin served as controls. Specific bands are marked with an asterisk. (G) Total RNA was isolated after 8 h and qRT-PCR was performed for quantification of expression of the Nrf2 target genes glutamate-cysteine ligase, catalytic subunit (GCLC), glutamate-cysteine ligase, modifier subunit (GCLM), and NAD(P)H dehydrogenase, quinone 1 (N001). (A-G) Representative experiments performed at least three times are shown. […] Mann-Whitney test was performed. […] Mann-Whitney test was performed. *P≤0.05

Nrf2 [6] = assay: Nrf2 stabilisation and nuclear accumulation in human primary keratinocytes (Western blot); assay type: cell-based; details: HPKs, FIG. 6E,F; for expression of the other Nrf2 complex proteins Keap1, Cul3, and Rbx1: 1 h; for stabilisation and nuclear accumulation of Nrf2 protein: harvested after 1 h
Method: as §5, §6

[7] = system: Monosodium urate (MSU) crystal-induced peritonitis; assay: MSU crystal-induced peritonitis mouse model (neutrophils in peritoneal lavage); assay type: in vivo; details: mice, oral gavage 20 mg/kg for six days, 6 h post 2 mg MSU crystals, vs control mice, n=7, FIG. 3E
Method: as §7
Mice were challenged with 2 mg of MSU crystals for 6 hours as previously described (Chen et a Olin Invest 2006. 116: 2262-2271).
Mice treated by gavage with (A, B, C) SFN (25 mg/kg) in PBS or (D, E, F) DMF (20 mg/kg) in H2O containing 0.08% methocel and 10% DMSO, vehicle-treated mice served as control. Regime for (A) SFN or (D) DMF treatment. Peritonitis was induced by peritoneal injection of 2 mg MSU crystals, (B, E) After 6 h the number of neutrophils of the peritoneal lavage was determined by flow cytornetry. […] Statistics: Student's t-test. (B, C) n≥3, (E, F) n=7. *P≤0.05; **P≤0.01

NLRP3 inflammasome [8] = assay: UVB irradiation-induced inflammasome activation in HPKs (IL-1β ELISA, Western blot); assay type: cell-based, human; details: FIG. 2A, 8A-C; for inflammasome activation (processed caspase-1, mature IL-1β and -18 in the supernatant): different doses, UVB 30 min later, harvested after 5 h
From the text: as §2, §3, §4
FIG. 8: (A-C) HPKs were treated with the Nrf2 activating compounds (A) SFN, (B) DMF, and (C) 15d-PGJ2, irradiated with UVB 30 min later and harvested after 5 h. Analogous experiment as described in FIG. 2A for tBHQ. (D) THP-1 cells were differentiated with TPA for 3 d and primed with LPS overnight. Then, cells were treated with the solvent DMSO, SFN (10 μM) or 15-PGJ2 (10 μM). After 30 min the inflammasome was activated by nigericin treatment and cells and supernatants were harvested after 2.5 h. Western blots showing prolL-1β and mature IL-1p in the lysate and supernatant. 20% lysate and supernatant of a 12 well was used, respectively, in order to allow a comparison. IL-1β was quantified in the supernatant by ELISA and cytotoxicity by LDH release.

THP-1 cells = assay: Block of protein synthesis in THP-1 cells (Western blot); assay type: cell-based, human; details: THP-1, 30 μg/ml for 1 h before priming with upLPS overnight, FIG. 7E
Method: To determine the effects of Nrf2 activating compounds on inflammasome activation, the inventors treated keratinocytes with different doses of SFN, tBHQ, DMF or 15d-PGJ2 and irradiated the cells with UVB. […] As the Nrf2 activators were added to the cells only 15 to 30 min prior to inflammasome activation, it is unlikely that Nrf2 target genes are involved in inflammasome inhibition.
as §1

Compound: N.S=C(S)N1CCCC1 [PDTC]
- inflammasome activation-induced Nrf2 degradation (Nrf2 [1]; 500 μM for 10 min): blocked

Compound: CC(=O)OCOC(=O)CN(CC(=O)OCOC(C)=O)c1ccccc1OCCOc1ccccc1N(CC(=O)OCOC(C)=O)CC(=O)OCOC(C)=O [BAPTA-AM]
- inflammasome activation-induced Nrf2 degradation (Nrf2 [1]; 12.5 μM for 10 min): blocked

Compound: COC(=O)/C=C/C(=O)OC [DMF, dimethyl fumarate]
- expression of Nrf2 target genes in the liver [2]: increased mRNA expression
- IL-1β secretion (NLRP3 inflammasome [3]): inhibited IL-1β secretion
- IL-1β secretion (NLRP3 inflammasome [4]; 50 μM 1 h before nigericin (5 μM)): inhibited IL-1β secretion
- expression of classical Nrf2 target genes ([5]; 50 μM): induction of classical Nrf2 target genes
- expression of the other Nrf2 complex proteins Keap1, Cul3, and Rbx1 (Nrf2 [6]; 50 μM): not affected
- stabilisation and nuclear accumulation of Nrf2 protein (Nrf2 [6]; 50 μM): fast and robust stabilisation and nuclear accumulation of Nrf2 protein
- number of neutrophils in the peritoneum [7]: significantly reduced
- relative efficiency/potency of inflammasome inhibition between compounds (NLRP3 inflammasome [8]; UVB, same concentrations): less potent in inflammasome inhibition than SFN
- inflammasome activation (processed caspase-1, mature IL-1β and -18 in the supernatant) (NLRP3 inflammasome [8]): inhibited inflammasome activation in a dose-dependent manner

Compound: C[C@@H]1C[C@@H]([C@H](O)CC2CC(=O)NC(=O)C2)C(=O)[C@@H](C)C1 [cycloheximide]
- protein synthesis (THP-1 cells): blocks protein synthesis

Compound: CC(C)(C)c1cc(O)ccc1O [tBHQ, tert-butylhydroquinone]
- IL-1β secretion (NLRP3 inflammasome [4]; 10 μM 1 h before nigericin (5 μM)): inhibited IL-1β secretion
- expression of classical Nrf2 target genes ([5]; 10 μM): induction of classical Nrf2 target genes
- expression of the other Nrf2 complex proteins Keap1, Cul3, and Rbx1 (Nrf2 [6]; 10 μM): not affected
- stabilisation and nuclear accumulation of Nrf2 protein (Nrf2 [6]; 10 μM): fast and robust stabilisation and nuclear accumulation of Nrf2 protein
- inflammasome activation (processed caspase-1, mature IL-1β and -18 in the supernatant) (NLRP3 inflammasome [8]): inhibited inflammasome activation in a dose-dependent manner
